Drawing on patent publication US8173636B2, “Hydroxylthienoquinolones and related compounds as anti-infective agents” (Achillion Pharmaceuticals, Inc., priority 2009, dated 2012), this text covers MIC for 23 compounds.

Values after ≈ are worked out from the molar mass of the structure shown.

One experiment deals with S. aureus ATCC 29213. The experiment is described as follows: Minimum inhibitory concentration (MIC) assay, broth microdilution, MSSA. The format is cell-based. The note with it: Staphylococcus aureus, Table I. The method, then:
(§1) The antimicrobial activity of the compounds of the invention may be evaluated by a number of methods, including the following visual minimum inhibitory concentration (MIC) assay. This assay determines the minimum concentration of compound required to inhibit growth of a bacterial strain.
(§2) Whole-cell antibacterial activity is determined by broth microdilution using conditions recommended by the NCCLS (see National Committee for Clinical Laboratory Standards. 2001. Performance standards for antimicrobial susceptibility testing: 11th informational supplement. Vol. 21, no. 1, M100-S11. National Committee for Clinical Laboratory Standards, Wayne, Pa.). Test compounds are dissolved in DMSO and diluted 1:50 in Mueller-Hinton II broth (Becton-Dickinson) to produce a 256 μg/ml stock solution. In a 96-well microtiter plate, the compound solution is serially two-fold diluted in Mueller-Hinton II broth. After the compounds are diluted, a 50 μl aliquot of the test organism (˜1×10^6 cfu/mL) is added to each well of the microtiter plate. The final test concentrations ranges from 0.125-128 μg/mL. Inoculated plates are incubated in ambient air at 37° C. for 18 to 24 hours. The organisms selected for testing included laboratory strains S. aureus ATCC 29213 and E. coli ATCC 25922 (strains purchased from American Type Culture Collection, Manassas, Va.) m, S. aureus FQR700699, and Paeruginosa 27853. The minimum inhibitory concentration (MIC) is determined as the lowest concentration of compound that inhibited visible growth of the test organism.
Background: In broth dilution the organism is exposed to a series of concentrations in liquid medium.

The subject of experiment [1] is fluoroquinolone-resistant S. aureus ATCC 700699. The experiment is described as follows: Minimum inhibitory concentration (MIC) assay, broth microdilution, MRSA. The format is cell-based. The note with it: Staphylococcus aureus; fluoroquinolone-resistant S. aureus ATCC 700699; Table I; read-out: MRSA MIC. The method, then:
as §1, §2

Take `N#CCN1CCN(c2c(F)cc3c(=O)c4c(O)c(C#N)sc4n(C4CC4)c3c2OC(F)F)CC1` [Cmp 18, 7-(4-(cyanomethyl)piperazin-1-yl)-9-cyclopropyl-8-(difluoromethoxy)-6-fluoro-3-hydroxyl-4-oxo-4,9-dihydrothieno [2,3-b]quinoline-2-carbonitrile]: the results for the MIC (in the experiment on S. aureus ATCC 29213; in experiment [1]) were 0.13 µg/mL (≈ 0.266 µM) and 4 µg/mL (≈ 8.17 µM), respectively.

In the case of `COc1c(N2C[C@@H]3CCCN[C@@H]3C2)ccc2c(=O)c3c(O)c(C#N)sc3n(C3CC3)c12` [Cmp 27, 9-cyclopropyl-3-hydroxyl-8-methoxy-4-oxo-7-((4aS,7aS)-tetrahydro-1H-pyrrolo[3,4-b]pyridin-6(2H,7H,7aH)-yl)-4,9-dihydrothieno[2,3-b]quinoline-2-carbonitrile], the MIC (as a rule, the least concentration at which growth counts as inhibited) came out at 0.5 µg/mL (≈ 1.15 µM) with S. aureus ATCC 29213 and 8 µg/mL (≈ 18.3 µM) in experiment [1].

In the case of `COc1c(N2CCN(C)CC2)c(F)cc2c(=O)c3c(O)c(C#N)sc3n(C3CC3)c12` [Cmp 26, 9-cyclopropyl-6-fluoro-3-hydroxyl-8-methoxy-7-(4-methylpiperazin-1-yl)-4-oxo-4,9-dihydrothieno[2,3-b] quinoline-2-carbonitrile], the minimal inhibitory concentration (MIC) in the experiment with S. aureus ATCC 29213 worked out at 0.13 µg/mL (≈ 0.303 µM); in experiment [1], 1 µg/mL (≈ 2.33 µM).

As to `COc1c(N2CCNCC2)c(F)cc2c(=O)c3c(O)c(C(N)=O)sc3n(C3CC3)c12` [Cmp 25, 9-cyclopropyl-6-fluoro-3-hydroxyl-8-methoxy-4-oxo-7-(piperazin-1-yl)-4,9-dihydrothieno[2,3-b]quinoline-2-carboxamide], the minimum inhibitory concentration (MIC) in the experiment on S. aureus ATCC 29213 stood at 0.25 µg/mL (≈ 0.578 µM); in experiment [1] it was 2 µg/mL (≈ 4.62 µM).

Consider `COc1c(N2CCC(C(F)(F)F)CC2)c(F)cc2c(=O)c3c(n(C4CC4)c12)SC(C#N)C3=O` (stereo not shown) [Cmp 43, 9-cyclopropyl-6-fluoro-8-methoxy-3,4-dioxo-7-(4-(trifluoromethyl)piperidin-1-yl)-2,3,4,9-tetrahydrothieno [2,3-b]quinoline-2-carbonitrile], for which the figures for the MIC (against S. aureus ATCC 29213; in experiment [1]) were 1 µg/mL (≈ 2.08 µM) and 8 µg/mL (≈ 16.6 µM), respectively.

Take `N#Cc1sc2c(c1O)c(=O)c1ccc(N3CCNCC3)c(OC(F)F)c1n2C1CC1` [Cmp 16, 9-cyclopropyl-8-(difluoromethoxy)-3-hydroxyl-4-oxo-7-(piperazin-l-yl)-4,9-dihydrothieno[2,3-b]quinoline-2-carbonitrile]: the figures for the minimum inhibitory concentration (MIC) (with S. aureus ATCC 29213; in experiment [1]) were 4 µg/mL (≈ 9.25 µM) and 64 µg/mL (≈ 148 µM), respectively.

For the compound `COc1c(N2CC[C@@H](C(C)(C)NCCC#N)C2)c(F)cc2c(=O)c3c(n(C4CC4)c12)SC(C#N)C3=O` (stereo partly drawn) [Cmp 49, 7-((R)-3-(2-(2-cyanoethylamino)propan-2-yl)pyrrolidin-1-yl)-9-cyclopropyl-6-fluoro-8-methoxy-3,4-dioxo-2,3,4,9-tetrahydrothieno[2,3-b]quinoline-2-carbonitrile], the MIC turned out to be 0.06 µg/mL (≈ 0.118 µM) in the experiment on S. aureus ATCC 29213 and 0.5 µg/mL (≈ 0.981 µM) in experiment [1].

In the case of `COc1c(N2C[C@H]3CNC[C@H]3C2)c(F)cc2c(=O)c3c(O)c(C#N)sc3n(C3CC3)c12` [Cmp 42, 9-cyclopropyl-6-fluoro-7-((3aR,6aS)-hexahydropyrrolo [3,4-c]pyrrol-2(1H)-yl)-3-hydroxyl-8-methoxy-4-oxo-4,9-dihydrothieno[2,3-b]quinoline-2-carbonitrile], the minimal inhibitory concentration (MIC) came out at 0.25 µg/mL (≈ 0.568 µM) in the experiment on S. aureus ATCC 29213 and 1 µg/mL (≈ 2.27 µM) in experiment [1].

With `COc1c(N2CCCC(CN)C2)c(F)cc2c(=O)c3c(O)c(C(N)=O)sc3n(C3CC3)c12` (stereo not shown) [Cmp 65, 7-(3-(aminomethyl)piperidin-1-yl)-9-cyclopropyl-6-fluoro-3-hydroxyl-8-methoxy-4-oxo-4,9-dihydrothieno [2,3-b]quinoline-2-carboxamide], the minimum inhibitory concentration (MIC) came out at 0.5 µg/mL (≈ 1.09 µM) in the experiment on S. aureus ATCC 29213 and 2 µg/mL (≈ 4.34 µM) in experiment [1].

Regarding `COc1c(N2CCNCC2)c(F)cc2c(=O)c3c(O)c(-c4ccc(F)c(F)c4)sc3n(C3CC3)c12` [Cmp 15, 9-cyclopropyl-2-(3,4-difluorophenyl)-6-fluoro-3-hydroxyl-8-methoxy-7-(piperazin-1-yl)thieno[2,3-b]quinolin-4(9H)-one], the values for the MIC (with S. aureus ATCC 29213; in experiment [1]) were 8 µg/mL (≈ 16 µM) and 4 µg/mL (≈ 7.98 µM), respectively.

On to `COc1c(N2CCCC(C(N)=O)C2)c(F)cc2c(=O)c3c(O)c(C#N)sc3n(C3CC3)c12` (stereo not shown) [Cmp 37, 1-(2-cyano-9-cyclopropyl-6-fluoro-3-hydroxyl-8-methoxy-4-oxo-4,9-dihydrothieno[2,3-b]quinolin-7-yl)piperidine-3-carboxamide], for which the MIC against S. aureus ATCC 29213 was found to be 0.03 µg/mL (≈ 0.0657 µM); in experiment [1], 0.25 µg/mL (≈ 0.548 µM).

As to `COC(=O)c1sc2c(c1O)c(=O)c1cc(F)c(N3CCNCC3)c(OC)c1n2C1CC1` [Cmp 7, methyl 9-cyclopropyl-6-fluoro-3-hydroxyl-8-methoxy-4-oxo-7-(piperazin-1-yl)-4,9-dihydrothieno[2,3-b] quinoline-2-carboxylate], the minimal inhibitory concentration (MIC) with S. aureus ATCC 29213 amounted to 3 µg/mL (≈ 6.7 µM); in experiment [1] it was 32 µg/mL (≈ 71.5 µM).

On to `COc1c(N2CC[C@@H](CN)C2)c(F)cc2c(=O)c3c(O)c(C(N)=O)sc3n(C3CC3)c12` [Cmp 61, (S)-7-(3-(aminomethyl)pyrrolidin-1-yl)-9-cyclopropyl-6-fluoro-3-hydroxyl-8-methoxy-4-oxo-4,9-dihydrothieno [2,3-b]quinoline-2-carboxamide], for which the MIC in the experiment with S. aureus ATCC 29213 was determined as 0.13 µg/mL (≈ 0.291 µM); in experiment [1], 0.5 µg/mL (≈ 1.12 µM).

Consider `COc1c(N2CCNCC2)ccc2c(=O)c3c(O)c(C#N)sc3n(C3CC3)c12` [Cmp 19, 9-cyclopropyl-3-hydroxyl-8-methoxy-4-oxo-7-(piperazin-1-yl)-4,9-dihydrothieno[2,3-b]quinoline-2-carbonitrile], for which the minimal inhibitory concentration (MIC) stood at 0.25 µg/mL (≈ 0.631 µM) against S. aureus ATCC 29213 and 4 µg/mL (≈ 10.1 µM) in experiment [1].

Consider `COc1c(-c2cn[nH]c2)c(F)cc2c(=O)c3c(n(C4CC4)c12)SC(C#N)C3=O` (stereo not shown) [Cmp 51, 9-cyclopropyl-6-fluoro-8-methoxy-3,4-dioxo-7-(1H-pyrazol-4-yl)-2,3,4,9-tetrahydrothieno[2,3-b]quinoline-2-carbonitrile], for which the values for the MIC (against S. aureus ATCC 29213; in experiment [1]) were 0.03 µg/mL (≈ 0.0757 µM) and 0.5 µg/mL (≈ 1.26 µM), respectively.

Regarding `N#Cc1sc2c(c1O)c(=O)c1cc(F)c(N3CCNCC3)c(OC(F)F)c1n2C1CC1` [Cmp 3, 9-cyclopropyl-8-(difluoromethoxy)-6-fluoro-3-hydroxyl-4-oxo-7-(piperazin-1-yl)-4,9-dihydrothieno[2,3-b]quinoline-2-carbonitrile], the minimal inhibitory concentration (MIC) is 0.25 µg/mL (≈ 0.555 µM) with S. aureus ATCC 29213 and 4 µg/mL (≈ 8.88 µM) in experiment [1].

Regarding `COc1c(N2CC[C@@H](C(C)(C)N)C2)c(F)cc2c(=O)c3c(O)c(C#N)sc3n(C3CC3)c12` [Cmp 10, (R)-7-(3-(2-aminopropan-2-yl)pyrrolidin-1-yl)-9-cyclopropyl-6-fluoro-3-hydroxyl-8-methoxy-4-oxo-4,9-dihydrothieno [2,3-b]quinoline-2-carbonitrile], the MIC against S. aureus ATCC 29213 was 0.02 µg/mL (≈ 0.0438 µM); in experiment [1], 0.094 µg/mL (≈ 0.206 µM).

`CNC(C)(C)[C@@H]1CCN(c2c(F)cc3c(=O)c4c(O)c(C#N)sc4n(C4CC4)c3c2OC)C1` [Cmp 34, (R)-9-cyclopropyl-6-fluoro-3-hydroxyl-8-methoxy-7-(3-(2-(methylamino)propan-2-yl)pyrrolidin-1-yl)-4-oxo-4,9-dihydrothieno[2,3-b]quinoline-2-carbonitrile]: the minimal inhibitory concentration (MIC) with S. aureus ATCC 29213 came to 0.06 µg/mL (≈ 0.128 µM); in experiment [1], 0.5 µg/mL (≈ 1.06 µM).

On to `COc1c(N2CCNCC2)c(F)cc2c(=O)c3c(O)c(C#N)sc3n(C3CC3)c12` [Cmp 9, 9-cyclopropyl-6-fluoro-3-hydroxyl-8-methoxy-4-oxo-7-(piperazin-1-yl)-4,9-dihydrothieno[2,3-b]quinoline-2-carbonitrile], for which the MIC in the experiment with S. aureus ATCC 29213 came out at 0.06 µg/mL (≈ 0.145 µM); in experiment [1], 0.75 µg/mL (≈ 1.81 µM).

Regarding `CCN[C@@H](C)[C@@H]1CCN(c2c(F)cc3c(=O)c4c(O)c(C#N)sc4n(C4CC4)c3c2OC)C1` [Cmp 30, 9-cyclopropyl-7-((R)-3-((S)-1-(ethylamino)ethyl)pyrrolidin-1-yl)-6-fluoro-3-hydroxyl-8-methoxy-4-oxo-4,9-dihydrothieno [2,3-b]quinoline-2-carbonitrile], the MIC in the experiment with S. aureus ATCC 29213 stood at 0.03 µg/mL (≈ 0.0638 µM); in experiment [1], 0.13 µg/mL (≈ 0.276 µM).

For the compound `COc1c(N2CCCC(c3ncn[nH]3)C2)c(F)cc2c(=O)c3c(n(C4CC4)c12)SC(C#N)C3=O` (stereo not shown) [Cmp 53, 7-(3-(1H-1,2,4-triazol-5-yl)piperidin-1-yl)-9-cyclopropyl-6-fluoro-8-methoxy-4-dioxo-2,3,4,9-tetrahydrothieno [2,3-b]quinoline-2-carbonitrile], the MIC came out at 0.13 µg/mL (≈ 0.271 µM) in the experiment on S. aureus ATCC 29213 and 2 µg/mL (≈ 4.16 µM) in experiment [1].

For `CN[C@@H](C)[C@@H]1CCN(c2c(F)cc3c(=O)c4c(O)c(C#N)sc4n(C4CC4)c3c2OC)C1` [Cmp 31, 9-cyclopropyl-6-fluoro-3-hydroxyl-8-methoxy-7-((R)-3-((S)-1-(methylamino)ethyl)pyrrolidin-1-yl)-4-oxo-4,9-dihydrothieno [2,3-b]quinoline-2-carbonitrile], the MIC against S. aureus ATCC 29213 was 0.03 µg/mL (≈ 0.0657 µM); in experiment [1], 0.25 µg/mL (≈ 0.548 µM).

Consider `COc1c(N2CC[C@@H](C(C)(C)N(C)C)C2)c(F)cc2c(=O)c3c(O)c(C#N)sc3n(C3CC3)c12` [Cmp 36, (R)-9-cyclopropyl-7-(3-(2-(dimethylamino)propan-2-yl)pyrrolidin-1-yl)-6-fluoro-3-hydroxyl-8-methoxy-4-oxo-4,9-dihydrothieno[2,3-b]quinoline-2-carbonitrile], for which the minimum inhibitory concentration (MIC) in the experiment with S. aureus ATCC 29213 was found to be 0.25 µg/mL (≈ 0.516 µM); in experiment [1], 2 µg/mL (≈ 4.13 µM).
